Data on 12 compounds can be found in PubChem BioAssay (NCI).

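Following 48 hours of exposure in 96-well plates, responses at five concentrations were used to interpolate endpoints linearly. Abbreviation: GI50, concentration required for 50% inhibition of growth. TGI is the concentration that stops growth completely.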 Where a SMILES comes first, the peptide text is derived from it. [ ]: non-standard residue; d: D form. The star is where a group is joined. ξ: configuration not given here. ξF = NC(Cc1ccccc1)C(=O)O; Cbz = O=C(OCc1ccccc1)*; Aib = CC(C)(N)C(=O)O Where only a bound is given, the exact number is not on record here.

Test systems include COLO 205 colon; IGROV1 ovarian; LOX IMVI melanoma; NCI-H23 lung; NCI-H460 lung; OVCAR-3 ovarian; OVCAR-8 ovarian; SF-268 CNS; SF-295 CNS; SNB-75 CNS.
Common to all, as to test: NCI-60 cell line screen, 48 h

With `CN(C)CCNC(=O)c1cc(Cl)cc2cc3ccccc3nc12`, the TGI in the experiment with COLO 205 colon was 1.66 µM; in the experiment on IGROV1 ovarian, 8.32 µM; with LOX IMVI melanoma, 2.6 µM; in the experiment with NCI-H23 lung, 3.42 µM; in the experiment on NCI-H460 lung, 2.41 µM; with OVCAR-3 ovarian, 16 µM. Also, the TGI came to 6.18 µM with OVCAR-8 ovarian, 4.53 µM with SF-268 CNS, 2.85 µM with SF-295 CNS and 6.09 µM in the experiment with SNB-75 CNS.

As to `CCOC(=O)CCC(C(=O)OCC)n1nc2ccc(Nc3c(C)[n+]([O-])c4cc(F)c(OCC)cc4[n+]3[O-])cc2n1` (stereo not given), the TGI in the experiment on COLO 205 colon, with IGROV1 ovarian, in the experiment on LOX IMVI melanoma, in the experiment with NCI-H23 lung, in the experiment with NCI-H460 lung and in the experiment with OVCAR-3 ovarian was greater than 100 µM each time. Further, the TGI in the experiment on OVCAR-8 ovarian is greater than 100 µM; in the experiment on SF-268 CNS, 37.6 µM; in the experiment on SF-295 CNS it was greater than 100 µM; with SNB-75 CNS, 32.9 µM.

On to `OCC(O)CNc1ncnc2ccccc12` (stereo not given), for which the TGI with COLO 205 colon, in the experiment with IGROV1 ovarian, in the experiment on LOX IMVI melanoma, in the experiment with NCI-H23 lung, with NCI-H460 lung and in the experiment with OVCAR-3 ovarian was greater than 100 µM each time. For the same compound, the TGI in the experiment with OVCAR-8 ovarian, in the experiment with SF-268 CNS, with SF-295 CNS and in the experiment with SNB-75 CNS was greater than 100 µM throughout.

Turning to `O=C1c2cccnc2C(=O)c2c1c(C(=O)OCCN1CCCCC1)c1ccccn21`, the GI50 in the experiment with COLO 205 colon is 0.0481 µM; in the experiment with IGROV1 ovarian, 0.145 µM; in the experiment with LOX IMVI melanoma, 0.0172 µM; in the experiment on NCI-H23 lung, 0.0057 µM; with NCI-H460 lung, 0.005 µM; in the experiment with OVCAR-3 ovarian it was 0.172 µM. Also, the GI50 in the experiment on OVCAR-8 ovarian is 0.0344 µM; with SF-268 CNS, 0.0345 µM; with SF-295 CNS, 0.0311 µM; in the experiment on SNB-75 CNS it was 0.0189 µM. Also, the TGI with COLO 205 colon turned out to be 0.169 µM; in the experiment with IGROV1 ovarian, 2.94 µM; in the experiment on LOX IMVI melanoma, 0.095 µM; in the experiment with NCI-H23 lung it was 0.0291 µM; with NCI-H460 lung, 0.0128 µM; in the experiment with OVCAR-3 ovarian it was 2.81 µM. In addition, the TGI in the experiment on OVCAR-8 ovarian worked out at 1.02 µM; with SF-268 CNS, 0.365 µM; in the experiment on SF-295 CNS, 0.2 µM; in the experiment on SNB-75 CNS, 0.188 µM.

With `O=C(CSCC(=O)N/N=C/c1ccccc1)N/N=C\c1ccccc1`, the TGI in the experiment with COLO 205 colon, in the experiment on IGROV1 ovarian, in the experiment on LOX IMVI melanoma, in the experiment on NCI-H23 lung, in the experiment with NCI-H460 lung and in the experiment on OVCAR-3 ovarian was greater than 100 µM in each case. In addition, the TGI in the experiment on OVCAR-8 ovarian, in the experiment with SF-268 CNS, with SF-295 CNS and in the experiment with SNB-75 CNS was greater than 100 µM throughout.

In the case of `CC1(CO)COS(=O)OC1` (stereo not given), the TGI with COLO 205 colon, in the experiment on LOX IMVI melanoma, in the experiment on NCI-H23 lung, in the experiment with NCI-H460 lung, in the experiment with OVCAR-3 ovarian and in the experiment with OVCAR-8 ovarian was greater than 100 µM throughout. In addition, the TGI with SF-268 CNS, in the experiment on SF-295 CNS and with SNB-75 CNS was greater than 100 µM throughout.

Take `CC(C)(C)OC(=O)N1C(OP(=O)(Oc2ccccc2)Oc2ccccc2)=CSc2ccccc21`: the TGI is 49.6 µM in the experiment with COLO 205 colon; greater than 100 µM in the experiment on IGROV1 ovarian; greater than 100 µM with LOX IMVI melanoma; greater than 100 µM with NCI-H23 lung; greater than 100 µM in the experiment on NCI-H460 lung; greater than 100 µM in the experiment with OVCAR-3 ovarian. In addition, the TGI with OVCAR-8 ovarian, in the experiment on SF-268 CNS, with SF-295 CNS and in the experiment on SNB-75 CNS was greater than 100 µM each time.

As to `OC[C@H]1NC[C@@H](O)[C@@H](O)[C@H]1O`, the TGI with COLO 205 colon, in the experiment with IGROV1 ovarian, in the experiment on LOX IMVI melanoma, in the experiment with NCI-H23 lung, in the experiment with NCI-H460 lung and with OVCAR-3 ovarian was greater than 100 µM throughout. Further, the TGI in the experiment with OVCAR-8 ovarian, in the experiment on SF-295 CNS and in the experiment with SNB-75 CNS was greater than 100 µM throughout.

In the case of `CCOC(=O)CNC(=O)C(Cc1ccccc1)NC(=O)C(C)(C)NC(=O)OCc1ccccc1` (stereo not given) (Cbz-[Aib]-[ξF]-Gly-OEt), the TGI was greater than 100 µM in the experiment with COLO 205 colon; greater than 100 µM in the experiment on IGROV1 ovarian; greater than 100 µM in the experiment on LOX IMVI melanoma; 78.2 µM in the experiment on OVCAR-3 ovarian; greater than 100 µM in the experiment with OVCAR-8 ovarian; greater than 100 µM with SF-268 CNS. This compound gave a TGI in the experiment with SF-295 CNS greater than 100 µM.

`CC(C)CCCC(C)[C@H]1CC[C@H]2n3c(nc4ccccc43)CCC[C@]12C` (stereo not given in full): the TGI in the experiment with COLO 205 colon was 23.7 µM; in the experiment with IGROV1 ovarian it was 34.6 µM; with LOX IMVI melanoma it was greater than 100 µM; with NCI-H23 lung, 34.4 µM; in the experiment with NCI-H460 lung, 32 µM; in the experiment on OVCAR-3 ovarian, 39 µM. The TGI in the experiment on OVCAR-8 ovarian turned out to be 37.2 µM; in the experiment with SF-268 CNS, 43 µM; with SF-295 CNS it was 30.7 µM; in the experiment on SNB-75 CNS it was 29.3 µM.

On to `Nc1[nH]c(=S)nc2nc3c(c(-c4ccccc4)c12)CCCC3`, for which the TGI in the experiment with COLO 205 colon, with IGROV1 ovarian, in the experiment on LOX IMVI melanoma, in the experiment with NCI-H23 lung, in the experiment with NCI-H460 lung and in the experiment on OVCAR-3 ovarian was greater than 100 µM throughout. For the same compound, the TGI in the experiment on OVCAR-8 ovarian, in the experiment with SF-268 CNS, in the experiment with SF-295 CNS and with SNB-75 CNS was greater than 100 µM throughout.

For the compound `CN(Cc1cn(O)c2nc(=N)nc(N)c-2n1)c1ccc(C(=O)NC23CC4CC(CC(C4)C2)C3)cc1`, the TGI in the experiment on COLO 205 colon, in the experiment with IGROV1 ovarian, with LOX IMVI melanoma, with NCI-H23 lung, in the experiment with NCI-H460 lung and in the experiment with OVCAR-3 ovarian was greater than 100 µM throughout. The TGI in the experiment with OVCAR-8 ovarian is greater than 100 µM; in the experiment on SF-268 CNS, 81.4 µM; in the experiment with SF-295 CNS, greater than 100 µM; in the experiment with SNB-75 CNS, 76.2 µM.
